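Following 48 hours of exposure in 96-well plates, responses at five concentrations were used to interpolate endpoints linearly. TGI marks complete inhibition of growth.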
Key:
Test in all cases: NCI anticancer screen, dose series, 48 h
786-0 renal = tested on: 786-0 renal
A498 renal = tested on: A498 renal
A549 NSCLC = tested on: A549 NSCLC
ACHN renal = tested on: ACHN renal
CAKI-1 renal = tested on: CAKI-1 renal
CCRF-CEM leukemia = tested on: CCRF-CEM leukemia
COLO 205 colon = tested on: COLO 205 colon
DLD-1 colon = tested on: DLD-1 colon
DMS 114 small cell lung = tested on: DMS 114 small cell lung
DMS 273 small cell lung = tested on: DMS 273 small cell lung
EKVX NSCLC = tested on: EKVX NSCLC
HCC-2998 colon = tested on: HCC-2998 colon
HCT-116 colon = tested on: HCT-116 colon
HCT-15 colon = tested on: HCT-15 colon
HL-60(TB) leukemia = tested on: HL-60(TB) leukemia
HOP-18 NSCLC = tested on: HOP-18 NSCLC
HOP-62 NSCLC = tested on: HOP-62 NSCLC
HOP-92 NSCLC = tested on: HOP-92 NSCLC
HT29 colon = tested on: HT29 colon
IGROV1 ovarian = tested on: IGROV1 ovarian
K-562 leukemia = tested on: K-562 leukemia
KM12 colon = tested on: KM12 colon
KM20L2 colon = tested on: KM20L2 colon
LOX IMVI melanoma = tested on: LOX IMVI melanoma
LXFL 529 NSCLC = tested on: LXFL 529 NSCLC
M14 melanoma = tested on: M14 melanoma
M19-MEL melanoma = tested on: M19-MEL melanoma
MALME-3M melanoma = tested on: MALME-3M melanoma
MOLT-4 leukemia = tested on: MOLT-4 leukemia
NCI-H226 lung = tested on: NCI-H226 lung
NCI-H23 lung = tested on: NCI-H23 lung
NCI-H460 lung = tested on: NCI-H460 lung
NCI-H522 lung = tested on: NCI-H522 lung
OVCAR-3 ovarian = tested on: OVCAR-3 ovarian
OVCAR-4 ovarian = tested on: OVCAR-4 ovarian
OVCAR-5 ovarian = tested on: OVCAR-5 ovarian
OVCAR-8 ovarian = tested on: OVCAR-8 ovarian
RPMI-8226 leukemia = tested on: RPMI-8226 leukemia
RXF 393 renal = tested on: RXF 393 renal
SF-268 CNS = tested on: SF-268 CNS
SF-295 CNS = tested on: SF-295 CNS
SF-539 CNS = tested on: SF-539 CNS
SK-MEL-2 melanoma = tested on: SK-MEL-2 melanoma
SK-MEL-28 melanoma = tested on: SK-MEL-28 melanoma
SK-MEL-5 melanoma = tested on: SK-MEL-5 melanoma
SK-OV-3 ovarian = tested on: SK-OV-3 ovarian
SN12C renal = tested on: SN12C renal
SNB-19 CNS = tested on: SNB-19 CNS
SNB-75 CNS = tested on: SNB-75 CNS
SNB-78 CNS = tested on: SNB-78 CNS
SR leukemia = tested on: SR leukemia
SW-620 colon = tested on: SW-620 colon
TK-10 renal = tested on: TK-10 renal
U251 CNS = tested on: U251 CNS
UACC-257 melanoma = tested on: UACC-257 melanoma
UACC-62 melanoma = tested on: UACC-62 melanoma
UO-31 renal = tested on: UO-31 renal
XF 498 CNS = tested on: XF 498 CNS

Structure (SMILES): COCCCCCC(=O)CP(=O)(OC)OC
- TGI (786-0 renal): > 100 µM
- TGI (A498 renal): > 100 µM
- TGI (A549 NSCLC): > 100 µM
- TGI (ACHN renal): > 100 µM
- TGI (CAKI-1 renal): > 100 µM
- TGI (CCRF-CEM leukemia): > 100 µM
- TGI (COLO 205 colon): > 100 µM
- TGI (DLD-1 colon): > 100 µM
- TGI (DMS 114 small cell lung): > 100 µM
- TGI (DMS 273 small cell lung): > 100 µM
- TGI (EKVX NSCLC): > 100 µM
- TGI (HCC-2998 colon): > 100 µM
- TGI (HCT-116 colon): > 100 µM
- TGI (HCT-15 colon): > 100 µM
- TGI (HL-60(TB) leukemia): > 100 µM
- TGI (HOP-18 NSCLC): > 100 µM
- TGI (HOP-62 NSCLC): > 100 µM
- TGI (HOP-92 NSCLC): > 100 µM
- TGI (HT29 colon): > 100 µM
- TGI (IGROV1 ovarian): > 100 µM
- TGI (K-562 leukemia): > 100 µM
- TGI (KM12 colon): > 100 µM
- TGI (KM20L2 colon): > 100 µM
- TGI (LOX IMVI melanoma): > 100 µM
- TGI (LXFL 529 NSCLC): > 100 µM
- TGI (M14 melanoma): > 100 µM
- TGI (M19-MEL melanoma): > 100 µM
- TGI (MALME-3M melanoma): > 100 µM
- TGI (MOLT-4 leukemia): > 100 µM
- TGI (NCI-H226 lung): > 100 µM
- TGI (NCI-H23 lung): > 100 µM
- TGI (NCI-H460 lung): > 100 µM
- TGI (NCI-H522 lung): > 100 µM
- TGI (OVCAR-3 ovarian): > 100 µM
- TGI (OVCAR-4 ovarian): > 100 µM
- TGI (OVCAR-5 ovarian): > 100 µM
- TGI (OVCAR-8 ovarian): > 100 µM
- TGI (RPMI-8226 leukemia): > 100 µM
- TGI (RXF 393 renal): > 100 µM
- TGI (SF-268 CNS): > 100 µM
- TGI (SF-295 CNS): > 100 µM
- TGI (SF-539 CNS): > 100 µM
- TGI (SK-MEL-2 melanoma): > 100 µM
- TGI (SK-MEL-28 melanoma): > 100 µM
- TGI (SK-MEL-5 melanoma): > 100 µM
- TGI (SK-OV-3 ovarian): > 100 µM
- TGI (SN12C renal): > 100 µM
- TGI (SNB-19 CNS): > 100 µM
- TGI (SNB-75 CNS): > 100 µM
- TGI (SNB-78 CNS): > 100 µM
- TGI (SR leukemia): > 100 µM
- TGI (SW-620 colon): > 100 µM
- TGI (TK-10 renal): > 100 µM
- TGI (U251 CNS): > 100 µM
- TGI (UACC-257 melanoma): > 100 µM
- TGI (UACC-62 melanoma): > 100 µM
- TGI (UO-31 renal): > 100 µM
- TGI (XF 498 CNS): > 100 µM

Structure (SMILES): O=C(/C=C/c1cccc([N+](=O)[O-])c1)c1cccnc1
- TGI (786-0 renal): 30.5 µM
- TGI (A498 renal): > 62.9 µM
- TGI (A549 NSCLC): > 100 µM
- TGI (ACHN renal): > 100 µM
- TGI (CAKI-1 renal): > 90.8 µM
- TGI (CCRF-CEM leukemia): 59.2 µM
- TGI (COLO 205 colon): > 87.1 µM
- TGI (DLD-1 colon): 52.2 µM
- TGI (DMS 114 small cell lung): 52.9 µM
- TGI (DMS 273 small cell lung): 69.6 µM
- TGI (EKVX NSCLC): > 100 µM
- TGI (HCC-2998 colon): > 66.1 µM
- TGI (HCT-116 colon): 33.3 µM
- TGI (HCT-15 colon): > 100 µM
- TGI (HL-60(TB) leukemia): 48.3 µM
- TGI (HOP-18 NSCLC): > 31.2 µM
- TGI (HOP-62 NSCLC): > 100 µM
- TGI (HOP-92 NSCLC): > 100 µM
- TGI (HT29 colon): 42.9 µM
- TGI (IGROV1 ovarian): 70.4 µM
- TGI (K-562 leukemia): > 78.5 µM
- TGI (KM12 colon): 43.3 µM
- TGI (KM20L2 colon): > 67.8 µM
- TGI (LOX IMVI melanoma): 40.1 µM
- TGI (LXFL 529 NSCLC): 43 µM
- TGI (M14 melanoma): 19.6 µM
- TGI (M19-MEL melanoma): > 67.9 µM
- TGI (MALME-3M melanoma): > 100 µM
- TGI (MOLT-4 leukemia): 63.5 µM
- TGI (NCI-H226 lung): > 100 µM
- TGI (NCI-H23 lung): 44.8 µM
- TGI (NCI-H460 lung): > 100 µM
- TGI (NCI-H522 lung): 25.3 µM
- TGI (OVCAR-3 ovarian): 68.8 µM
- TGI (OVCAR-4 ovarian): > 100 µM
- TGI (OVCAR-5 ovarian): > 100 µM
- TGI (OVCAR-8 ovarian): > 100 µM
- TGI (RPMI-8226 leukemia): 44.8 µM
- TGI (RXF 393 renal): 34.4 µM
- TGI (SF-268 CNS): > 86.4 µM
- TGI (SF-295 CNS): > 100 µM
- TGI (SF-539 CNS): 48.3 µM
- TGI (SK-MEL-2 melanoma): > 100 µM
- TGI (SK-MEL-28 melanoma): 60.8 µM
- TGI (SK-MEL-5 melanoma): 22.3 µM
- TGI (SK-OV-3 ovarian): > 100 µM
- TGI (SN12C renal): > 62.9 µM
- TGI (SNB-19 CNS): > 94.7 µM
- TGI (SNB-75 CNS): > 91.5 µM
- TGI (SNB-78 CNS): > 94.2 µM
- TGI (SR leukemia): 62.5 µM
- TGI (SW-620 colon): 37.5 µM
- TGI (TK-10 renal): > 100 µM
- TGI (U251 CNS): 56.1 µM
- TGI (UACC-257 melanoma): 97.7 µM
- TGI (UACC-62 melanoma): > 82.4 µM
- TGI (UO-31 renal): > 70.7 µM
- TGI (XF 498 CNS): > 81.1 µM
